Measurements from publication PMC4298654, “In vivo formation of N-acyl-fumonisin B1” (Mycotoxin Research, 2014).

Assay: In vivo formation of NAFB1 and NAHFB1 in rat kidney and liver (HPLC-ESI-MS/MS)
Design: N-acyl-derivative in tissue sample, analysis a / N-acyl-derivative in tissue sample, analysis b / N-acyl-derivative in tissue sample, mean: unit not given here
Settings: 5 days
Source text: The study protocol was approved by the Institutional Animal Care and Use Committee, Richard B. Russell Agricultural Research Center, Athens, GA. Male Sprague–Dawley rats (Harlan Industries, Indianapolis, IN, USA), 7 weeks of age at receipt, were individually housed in stainless steel, wire mesh cages in an environmentally controlled room having a 12-h light/dark cycle. Food (2019 Global Rodent Diet, Teklad, Madison, WI, USA) and fresh tap water were provided ad libitum. After a 1 week acclimation period, the animals were randomly assigned to five groups (n = 2/group) having mean weights of 215 to 216 g (weight range of all animals, 211 to 220 g). For five consecutive days, they were observed, weighed, and given an intraperitoneal injection (ip) of 0 (vehicle), 0.5, 1.0, or 2.0 mg/kg body weight FB1 (provided by R. Eppley, US FDA), 1.0 mg/kg body weight HFB1 (positive control) (Voss et al. [2009]), or vehicle (0.9 % physiological saline). These doses corresponded to 0.69, 1.38, and 2.77 μmol FB1/kg body weight and 2.47 μmol/kg body weight HFB1 per day. In order to compare the effects of FB1 and HFB1, dosages will be expressed as molar concentrations and, on this basis, the high dose of FB1 is roughly equivalent to that of the positive control dose of HFB1. Dosing solutions were sterile filtered and administered at a volume rate of 10 ml/kg body weight. The animals were fasted overnight prior to administration of the final dose. The rats were euthanized (CO2 inhalation and exsanguination) 60 to 90 min following the final dose administration and examined by necropsy. The kidney and liver specimens were fixed in 10 % neutral buffered formalin, processed, and microscopically evaluated without knowledge of the animal’s identity or treatment group. Three representative liver and kidney specimens (100 mg each) were also collected, immediately frozen, and stored (−80 °C) until processed, at which time the tissues were thawed and homogenized in distilled/deionized water (1 ml water/100 mg tissue). The homogenates were lyophilized before they were shipped by overnight courier for the analysis of fumonisin metabolites and sphingolipids.
Lyophilized liver and kidney tissues (100 mg wet weight equivalents) were processed for the quantification of FB1, HFB1, NAFB1, NAHFB1, and sphingolipids. Preparation of the tissue samples was performed according to a previously published method (Harrer et al. [2013]). For the quantification of FB1 and HFB1, a d6-labeled derivative of FB1 (FB1-d6) was used as the internal standard. Synthetic derivatives with a heptadecanoic fatty acid (C17:0) residue were used as internal standards for the quantification of N-acyl-fumonisins and ceramides (N-C17:0-FB1, N-C17:0-HFB1, and N-C17:0-ceramide). The sphingoid bases and their phosphate derivatives were quantified using synthetic derivatives with a C17-acyl-backbone: sphingosine (C17:1), sphingosine-1-phosphate (C17:1), sphinganine (C17:0), sphinganine-1-phosphate (C17:0) as internal standards. The standards were dissolved in methanol:chloroform (2:1, v/v) and then mixed with the tissue samples. The samples spiked with internal standard were kept at room temperature for 30 min before being processed further. The internal standard-spiked samples were first extracted with ethyl acetate, isopropanol, and water (60:30:10, v/v/v) and a second time using methanol, chloroform, and water (60:30:10, v/v/v). The extracts were combined, the solvents removed by evaporation, and the dried samples stored at−80 °C till analyzed.
For the analysis, the samples were reconstituted in a mixture of water, methanol, and tetrahydrofurane (60:24:16, v/v/v). The NAFB1 and NAHFB1 derivatives having the following fatty acyl chain lengths were quantified by HPLC-MS/MS: C16:0, C18:0, C20:0, C22:0, C24:0, C26:0. Furthermore, we also quantified the unsaturated derivatives C24:1 and C26:1. The results are given as the sum of all N-acyl derivatives of FB1 or HFB1. […]

[1] = Kidney, treatment FB1 0,5 mg/kg BW ip
[2] = Kidney, treatment FB1 1 mg/kg BW ip
[3] = Kidney, treatment FB1 2 mg/kg BW ip
[4] = Kidney, treatment HFB1 1 mg/kg BW ip
[5] = Liver, treatment FB1 0,5 mg/kg BW ip
[6] = Liver, treatment FB1 1 mg/kg BW ip
[7] = Liver, treatment FB1 2 mg/kg BW ip
[8] = Liver, treatment HFB1 1 mg/kg BW ip

Row | SMILES | N-acyl-derivative in tissue sample, analysis a [1] | N-acyl-derivative in tissue sample, analysis a [2] | N-acyl-derivative in tissue sample, analysis b [2] | N-acyl-derivative in tissue sample, mean [2] | N-acyl-derivative in tissue sample, analysis a [3] | N-acyl-derivative in tissue sample, analysis b [3] | N-acyl-derivative in tissue sample, mean [3] | N-acyl-derivative in tissue sample, analysis a [4] | N-acyl-derivative in tissue sample, analysis b [4] | N-acyl-derivative in tissue sample, analysis a [5] | N-acyl-derivative in tissue sample, analysis b [5] | N-acyl-derivative in tissue sample, mean [5] | N-acyl-derivative in tissue sample, analysis a [6] | N-acyl-derivative in tissue sample, analysis b [6] | N-acyl-derivative in tissue sample, mean [6] | N-acyl-derivative in tissue sample, analysis a [7] | N-acyl-derivative in tissue sample, analysis b [7] | N-acyl-derivative in tissue sample, mean [7] | N-acyl-derivative in tissue sample, analysis a [8] | N-acyl-derivative in tissue sample, analysis b [8] | further results
1 | CCCCCCCCCCCCCCCC(=O)NC(C)C(O)CC(O)CCCCC(O)CC(C)CC(OC(=O)CC(CC(=O)O)C(=O)O)C(OC(=O)CC(CC(=O)O)C(=O)O)C(C)CCCC (stereo not shown) [FB1C16:0] | 7,4 | 14,4 | 12,6 | 13,5 | 12,1 | 13,8 | 13,0 | 0,0 | 0,0 | 6,8 | 5,1 | 6,0 | 3,9 | 6,4 | 5,2 | 8,4 | 5,9 | 7,1 | 0,0 | 0,0 | N-acyl-derivative in tissue sample, analysis b [1]: 9,1; N-acyl-derivative in tissue sample, mean [1]: 8,2; N-acyl-derivative in tissue sample, mean [4]: 0,0; N-acyl-derivative in tissue sample, mean [8]: 0,0
2 | CCCCCCCCCCCCCCCCCC(=O)NC(C)C(O)CC(O)CCCCC(O)CC(C)CC(OC(=O)CC(CC(=O)O)C(=O)O)C(OC(=O)CC(CC(=O)O)C(=O)O)C(C)CCCC (stereo not shown) [FB1C18:0] | 2,5 | 3,8 | 3,1 | 3,4 | 4,0 | 2,8 | 3,4 | 0,0 | 0,0 | 3,1 | 2,4 | 2,8 | 2,0 | 3,0 | 2,5 | 3,0 | 3,9 | 3,5 | 0,0 | 0,0 | N-acyl-derivative in tissue sample, analysis b [1]: 2,9; N-acyl-derivative in tissue sample, mean [1]: 2,7
3 | CCCCCCCCCCCCCCCCCCCC(=O)NC(C)C(O)CC(O)CCCCC(O)CC(C)CC(OC(=O)CC(CC(=O)O)C(=O)O)C(OC(=O)CC(CC(=O)O)C(=O)O)C(C)CCCC (stereo not shown) [FB1C20:0] | 0,2 | 0,2 | 0,0 | 0,1 | 0,0 | 0,6 | 0,3 | 0,0 | 0,0 | 0,0 | 0,0 | 0,0 | 0,0 | 0,0 | 0,0 | 0,0 | 0,0 | 0,0 | 0,0 | 0,0 | N-acyl-derivative in tissue sample, analysis b [1]: 0,5; N-acyl-derivative in tissue sample, mean [1]: 0,4; N-acyl-derivative in tissue sample, mean [4]: 0,0; N-acyl-derivative in tissue sample, mean [8]: 0,0
4 | CCCCCCCCCCCCCCCCCCCCCC(=O)NC(C)C(O)CC(O)CCCCC(O)CC(C)CC(OC(=O)CC(CC(=O)O)C(=O)O)C(OC(=O)CC(CC(=O)O)C(=O)O)C(C)CCCC (stereo not shown) [FB1C22:0] | 0,7 | 0,9 | 0,6 | 0,7 | 0,9 | 1,4 | 1,2 | 0,0 | 0,0 | 2,9 | 6,4 | 4,7 | 1,2 | 4,0 | 2,6 | 2,9 | 4,6 | 3,8 | 0,0 | 0,0 | N-acyl-derivative in tissue sample, analysis b [1]: 0,7; N-acyl-derivative in tissue sample, mean [1]: 0,7; N-acyl-derivative in tissue sample, mean [4]: 0,0; N-acyl-derivative in tissue sample, mean [8]: 0,0
5 | CCCCCCCCCCCCCCCCCCCCCCCC(=O)NC(C)C(O)CC(O)CCCCC(O)CC(C)CC(OC(=O)CC(CC(=O)O)C(=O)O)C(OC(=O)CC(CC(=O)O)C(=O)O)C(C)CCCC (stereo not shown) [FB1C24:0] |  | 3,0 | 2,4 | 2,7 | 5,0 | 4,4 | 4,7 | 0,0 | 0,0 | 11,7 | 12,3 | 12,0 | 2,1 | 7,3 | 4,7 | 9,0 | 17,6 | 13,3 | 0,0 | 0,0 | N-acyl-derivative in tissue sample, mean [4]: 0,0; N-acyl-derivative in tissue sample, mean [8]: 0,0
6 | CCCCCCCCC=CCCCCCCCCCCCCCC(=O)NC(C)C(O)CC(O)CCCCC(O)CC(C)CC(OC(=O)CC(CC(=O)O)C(=O)O)C(OC(=O)CC(CC(=O)O)C(=O)O)C(C)CCCC (stereo not shown) [FB1C24:1] | 3,6 | 4,1 | 4,6 | 4,3 | 5,7 | 4,2 | 4,9 | 0,0 | 0,0 | 9,2 | 11,8 | 10,5 | 3,4 | 6,3 | 4,9 | 9,0 | 11,1 | 10,1 | 0,0 | 0,0 | N-acyl-derivative in tissue sample, analysis b [1]: 3,5; N-acyl-derivative in tissue sample, mean [1]: 3,6; N-acyl-derivative in tissue sample, mean [4]: 0,0; N-acyl-derivative in tissue sample, mean [8]: 0,0
